Reference: patent publication US20180327367A1, “MACROCYCLIC BROAD SPECTRUM ANTIBIOTICS” (priority 2015, published 2018)
Converted amounts (≈) assume the structure as drawn. Where two headings read alike, the source gives them in different places.

Key:
[1] = molecular target: T1, SpsB (Staphylococcus aureus signal peptidase) (Staphylococcus aureus, UniProt P0A070); test: cell-based; format: biochemical; conditions: SpsB IC50, whole-cell S. aureus (USA300 background, overexpressing SpsB) as SpsB source; fluorogenic peptide substrate, kinetic read 30 min
T1 construct: This assay uses a suspension of Staphylococcus aureus cells as a source of SpsB instead of recombinant SpsB protein; endogenous in cells; host or cells: S. aureus, USA300 background, overexpressing SpsB (whole-cell suspension from frozen pellets)
In short: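 Cleavage of an internally quenched (Dabcyl)βAla-KPAKAAE(Edans) peptide, added as 20 μM solution mixed 1:1 with cells, was followed for 30 min at 340/490 nm. SpsB came from a suspension of SpsB-overexpressing USA300 S. aureus in Tween-80-containing PBS buffer. Slopes plotted against 3-fold compound dilutions gave IC50.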

[2] = system: Escherichia coli MC4100 harboring the IMP4213 (E. coli IMP); test: microbe, parasite or virus in culture; format: cell-based; conditions: Escherichia coli, 22 h, read-out: MIC (μg/mL) E. coli IMP, E. coli MC4100 IMP4213, increased outer-membrane permeability; 35° C., 22 hours
In short: (§1)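 Ten-point 2-fold series began at 4 μg/mL in protocol 2 and 0.5 μg/mL in protocol 3, in cation-adjusted MHB plus 0.002% Tween-80. Bacteria added to OD600 0.0005 final and incubated at 35° C for 22 hours per CLSI microdilution.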

[3] = system: Escherichia coli ATCC 25922; test: Minimum inhibitory concentration, broth micro-dilution (CLSI), E. coli; format: cell-based; conditions: Escherichia coli, ATCC25922, 22 h, 35° C., 22 hours
[4] = system: Methicillin Resistant Staphylococcus aureus strain USA 300, NRS384; test: Minimum inhibitory concentration, broth micro-dilution (CLSI), S. aureus; format: cell-based; conditions: Staphylococcus aureus, MRSA / NRS 384 / USA300, 22 h, 35° C., 22 hours
In short: as §1

[5] = read-out: MIC (μg/mL) E. coli, E. coli ATCC 25922
[6] = read-out: MIC (μg/mL) S. aureus, MRSA USA 300 NRS384
[7] = E. coli ATCC 25922, read-out: MIC (μg/mL) E. coli
[8] = MRSA USA 300 NRS384, read-out: MIC (μg/mL) S. aureus

T1 sequence (P0A070 whole entry): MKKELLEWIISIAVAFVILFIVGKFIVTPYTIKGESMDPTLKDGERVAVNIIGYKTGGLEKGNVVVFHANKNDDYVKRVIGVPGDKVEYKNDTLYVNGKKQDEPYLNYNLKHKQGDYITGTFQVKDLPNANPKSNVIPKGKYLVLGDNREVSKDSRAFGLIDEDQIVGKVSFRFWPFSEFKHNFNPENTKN

SMILES	IC50 [1] [nM]	MIC [2] [µg/mL]	MIC [3, 5] [µg/mL]	MIC [4, 6] [µg/mL]	MIC [3, 7] [µg/mL]	MIC [4, 8] [µg/mL]
C[C@@H]1NC(=O)[C@@H](N(C)C(=O)[C@H](CCN)NC(=O)c2ccc(C#Cc3ccccc3)cc2Cl)c2ccc(OCCN)c(c2)-c2cc(ccc2OCCN)C[C@@H](C(=O)NCC#N)NC1=O [Compound 424]	0.75	0.016 (≈ 0.0183 µM)	0.56 (≈ 0.639 µM)	0.063 (≈ 0.0719 µM)	–	–
Cc1cc(C#Cc2ccccc2)ccc1C(=O)N[C@@H](CCN)C(=O)N(C)[C@@H]1C(=O)N[C@@H](C)C(=O)N[C@H](C(=O)NCC#N)Cc2ccc(OCCN)c(c2)-c2cc1ccc2OCCN [Compound 425]	1.1	0.018 (≈ 0.021 µM)	–	–	0.63 (≈ 0.736 µM)	0.047 (≈ 0.0549 µM)
CCCCC1CCC(C2CCC(C(=O)N[C@@H](CCN)C(=O)N(C)[C@@H]3C(=O)N[C@@H](C)C(=O)N[C@H](C(=O)NCC#N)Cc4ccc(OCCN)c(c4)-c4cc3ccc4OCCN)CC2)CC1 (some centres unmarked) [Compound 426]	1.2	< 0.0039	–	–	0.19 (≈ 0.214 µM)	0.063 (≈ 0.0711 µM)
C[C@@H]1NC(=O)[C@@H](N(C)C(=O)[C@H](CCN)NC(=O)/C=C/c2ccc(-c3ccc(Cl)cc3)cc2)c2ccc(OCCN)c(c2)-c2cc(ccc2OCCN)C[C@@H](C(=O)NCC#N)NC1=O [Compound 427]	1.2	0.047 (≈ 0.0535 µM)	1 (≈ 1.14 µM)	0.063 (≈ 0.0717 µM)	–	–
CCCCc1ccc(/C=C/C(=O)N[C@@H](CCN)C(=O)N(C)[C@@H]2C(=O)N[C@@H](C)C(=O)N[C@H](C(=O)NCC#N)Cc3ccc(OCCN)c(c3)-c3cc2ccc3OCCN)cc1 [Compound 428]	1.2	0.023 (≈ 0.0279 µM)	–	–	1 (≈ 1.21 µM)	0.094 (≈ 0.114 µM)
Cc1cc(/C=C/c2ccccc2)ccc1C(=O)N[C@@H](CCN)C(=O)N(C)[C@@H]1C(=O)N[C@@H](C)C(=O)N[C@H](C(=O)NCC#N)Cc2ccc(OCCN)c(c2)-c2cc1ccc2OCCN [Compound 429]	0.81	0.0078 (≈ 0.00909 µM)	–	–	0.75 (≈ 0.874 µM)	0.063 (≈ 0.0734 µM)
Cc1cc(C2CCCCC2)ccc1C(=O)N[C@@H](CCN)C(=O)N(C)[C@@H]1C(=O)N[C@@H](C)C(=O)N[C@H](C(=O)NCC#N)Cc2ccc(OCCN)c(c2)-c2cc1ccc2OCCN [Compound 431]	0.77	0.023 (≈ 0.0274 µM)	–	–	0.88 (≈ 1.05 µM)	0.063 (≈ 0.0752 µM)
C[C@@H]1NC(=O)[C@@H](N(C)C(=O)[C@H](CCN)NC(=O)c2ccc(-c3ccc(C4CCCCC4)cc3)cc2)c2ccc(OCCN)c(c2)-c2cc(ccc2OCCN)C[C@@H](C(=O)NCC#N)NC1=O [Compound 432]	1.4	0.016 (≈ 0.0178 µM)	0.13 (≈ 0.144 µM)	0.094 (≈ 0.104 µM)	–	–
CCC(C)c1ccc(C(=O)N[C@@H](CCN)C(=O)N(C)[C@@H]2C(=O)N[C@@H](C)C(=O)N[C@H](C(=O)NCC#N)Cc3ccc(OCCN)c(c3)-c3cc2ccc3OCCN)c(C)c1 (some centres unmarked) [Compound 434]	1.5	0.047 (≈ 0.0579 µM)	–	–	2 (≈ 2.46 µM)	0.25 (≈ 0.308 µM)
Cc1cc(C2CCCCCC2)ccc1C(=O)N[C@@H](CCN)C(=O)N(C)[C@@H]1C(=O)N[C@@H](C)C(=O)N[C@H](C(=O)NCC#N)Cc2ccc(OCCN)c(c2)-c2cc1ccc2OCCN [Compound 436]	0.78	0.0078 (≈ 0.00915 µM)	–	–	0.38 (≈ 0.446 µM)	0.047 (≈ 0.0552 µM)
CCCCCCCc1cc(F)c(C(=O)N[C@@H](CCN)C(=O)N(C)[C@@H]2C(=O)N[C@@H](C)C(=O)N[C@H](C(=O)NCC#N)Cc3ccc(OCCN)c(c3)-c3cc2ccc3OCCN)c(Cl)c1 [Compound 437]	0.9	0.0078 (≈ 0.00874 µM)	–	–	0.25 (≈ 0.28 µM)	0.063 (≈ 0.0706 µM)
CCCCCCCCc1cc(C)c(C(=O)N[C@@H](CCN)C(=O)N(C)[C@@H]2C(=O)N[C@@H](C)C(=O)N[C@H](C(=O)NCC#N)Cc3ccc(OCCN)c(c3)-c3cc2ccc3OCCN)s1 [Compound 438]	0.78	0.031 (≈ 0.0355 µM)	–	–	0.38 (≈ 0.435 µM)	0.063 (≈ 0.0721 µM)
CCCCCCCOc1ccc(C(=O)N[C@@H](CCN)C(=O)N(C)[C@@H]2C(=O)N[C@@H](C)C(=O)N[C@H](C(=O)NCC#N)Cc3ccc(OCCN)c(c3)-c3cc2ccc3OCCN)c(C(F)F)c1 [Compound 442]	2.9	0.0078 (≈ 0.00861 µM)	–	–	0.19 (≈ 0.21 µM)	0.063 (≈ 0.0695 µM)
Cc1nn(-c2ccc(CC(C)C)cc2)cc1C(=O)N[C@@H](CCN)C(=O)N(C)[C@@H]1C(=O)N[C@@H](C)C(=O)N[C@H](C(=O)NCC#N)Cc2ccc(OCCN)c(c2)-c2cc1ccc2OCCN [Compound 443]	0.9	0.047 (≈ 0.0535 µM)	–	–	4 (≈ 4.56 µM)	0.094 (≈ 0.107 µM)
